These results are taken from ChEMBL document CHEMBL1201862, “PubChem BioAssay data set” (2004).

Calls of active or inactive are those of the source.

Assay [1] concerns the target T1, Probable nicotinate-nucleotide adenylyltransferase (Staphylococcus aureus (strain N315), UniProt P65502). Type of assay: functional, Staphylococcus aureus subsp. aureus N315.
The target in assay [2] is T1, Probable nicotinate-nucleotide adenylyltransferase. Type of assay: functional, Staphylococcus aureus subsp. aureus N315. As to conditions: read-out: IC50_Mean.
In the next assay the target is T2, fMet-Leu-Phe receptor (Homo sapiens, UniProt P21462).
T2 sequence (P21462 whole entry): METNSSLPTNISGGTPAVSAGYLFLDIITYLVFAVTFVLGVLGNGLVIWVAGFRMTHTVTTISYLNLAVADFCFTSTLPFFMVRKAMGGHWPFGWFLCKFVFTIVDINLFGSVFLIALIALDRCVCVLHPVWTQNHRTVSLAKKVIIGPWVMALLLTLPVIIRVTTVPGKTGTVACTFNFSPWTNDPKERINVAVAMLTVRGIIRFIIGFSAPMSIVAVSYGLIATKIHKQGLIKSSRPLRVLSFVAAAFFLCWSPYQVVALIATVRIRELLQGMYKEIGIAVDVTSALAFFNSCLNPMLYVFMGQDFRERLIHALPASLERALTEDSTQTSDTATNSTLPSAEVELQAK
Description: formyl peptide receptor binders – dose response (AID 519). Format: functional.

Assay [3] addresses T3, Heat shock factor protein 1 (Mus musculus, UniProt P38532).
T3 sequence (P38532 whole entry): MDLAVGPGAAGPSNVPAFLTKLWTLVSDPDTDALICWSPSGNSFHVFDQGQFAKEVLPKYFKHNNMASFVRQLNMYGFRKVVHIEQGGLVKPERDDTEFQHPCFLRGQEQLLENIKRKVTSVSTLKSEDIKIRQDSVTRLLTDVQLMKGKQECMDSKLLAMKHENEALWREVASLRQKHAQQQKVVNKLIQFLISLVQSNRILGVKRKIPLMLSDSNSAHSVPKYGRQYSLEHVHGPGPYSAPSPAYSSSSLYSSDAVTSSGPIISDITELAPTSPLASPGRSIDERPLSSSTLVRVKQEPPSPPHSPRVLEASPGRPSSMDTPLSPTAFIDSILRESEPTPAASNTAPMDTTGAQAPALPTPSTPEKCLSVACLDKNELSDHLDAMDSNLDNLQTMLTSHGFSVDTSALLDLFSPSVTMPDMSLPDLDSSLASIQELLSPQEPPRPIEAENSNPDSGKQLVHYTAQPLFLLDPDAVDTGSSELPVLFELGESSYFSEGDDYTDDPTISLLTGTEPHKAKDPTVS
Description: decrease of HSF1-responsive luciferase luminescence – cell-based, NIH3T3, dose retest, confirmation (AID 2382).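 Further: NIH3T3 fibroblasts with HSF1-driven luciferase reporter stressed by proteasome inhibitor MG132; luminescence from HSF1-driven luciferase expression after 8 hours of MG132 stress.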 Type of assay: functional.

In the next assay the test system is HEK293. Kind of assay: EBV LMP1 TES2 canonical NF-kB signalling blockers – cell-based, HEK293, luciferase, cherry-pick, dose response (AID 588343). Format: functional, Homo sapiens. Particulars: Homo sapiens, HEK293.
Assay [4] concerns the target T4, Interleukin-8 (Homo sapiens, UniProt P10145).
T4 sequence (P10145 whole entry): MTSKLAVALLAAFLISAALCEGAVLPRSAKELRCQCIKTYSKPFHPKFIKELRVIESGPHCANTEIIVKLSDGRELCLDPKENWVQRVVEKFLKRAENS
Kind of assay: Dose Response confirmation of uHTS small molecule hits for cystic fibrosis induced NFkb Inhibitors in a TNFa-induced IL8 counterscreen. Type of assay: functional. Particulars: read-out: IC50_Mean. Background: The purpose of a counterscreen is to sort out artefacts and off-target activity.

The target of assay [5] is T4, Interleukin-8. Kind of assay: Dose Response confirmation of uHTS small molecule hits for cystic fibrosis induced NFkb Inhibitors in a PAF-induced IL8 counterscreen. Type of assay: functional. Particulars: read-out: IC50_Mean.
For the next assay, the target named is Beta-galactosidase (Escherichia coli, UniProt Q8VNN2). Description: Dose response counterscreen for EBI2 assay utilizing the enzyme, b-galactosidase. Format: functional.
A short description of assay [6]: viability loss in HeLa cells – cytotoxicity control for MgcRacGAP inhibitor project, dose response (AID 624300). Type of assay: functional.
For the next assay, the target named is Cytochrome P450 2D6 (Homo sapiens, UniProt P10635).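 Further: CYP2D6 member of a cytochrome P450 panel assay.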
For assay [7], the target named is T5, Methionyl-tRNA synthetase, putative (Trypanosoma brucei brucei, UniProt Q38C91).
T5 sequence (Q38C91 whole entry): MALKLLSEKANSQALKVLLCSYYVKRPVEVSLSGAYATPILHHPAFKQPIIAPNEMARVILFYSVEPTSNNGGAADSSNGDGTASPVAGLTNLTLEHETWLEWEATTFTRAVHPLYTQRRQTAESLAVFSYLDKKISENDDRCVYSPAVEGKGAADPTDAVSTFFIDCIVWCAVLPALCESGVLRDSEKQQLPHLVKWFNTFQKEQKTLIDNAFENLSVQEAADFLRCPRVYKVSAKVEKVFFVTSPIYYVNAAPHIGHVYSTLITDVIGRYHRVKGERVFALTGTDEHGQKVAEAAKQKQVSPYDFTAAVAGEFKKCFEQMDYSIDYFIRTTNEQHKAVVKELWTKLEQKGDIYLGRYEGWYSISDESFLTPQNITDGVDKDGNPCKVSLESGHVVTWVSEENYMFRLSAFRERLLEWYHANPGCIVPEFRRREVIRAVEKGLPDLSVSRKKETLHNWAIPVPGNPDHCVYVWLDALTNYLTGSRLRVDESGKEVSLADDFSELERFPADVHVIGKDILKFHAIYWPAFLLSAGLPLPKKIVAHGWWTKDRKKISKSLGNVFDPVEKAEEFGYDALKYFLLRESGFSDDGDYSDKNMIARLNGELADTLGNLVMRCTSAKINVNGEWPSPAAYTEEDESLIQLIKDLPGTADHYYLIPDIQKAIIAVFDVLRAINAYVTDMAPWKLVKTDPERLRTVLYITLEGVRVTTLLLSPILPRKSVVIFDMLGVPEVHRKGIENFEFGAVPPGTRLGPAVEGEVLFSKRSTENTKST
Format: functional, Trypanosoma brucei brucei strain 927/4 GUTat10.1.

Assay [8] can be described thus: Counterscreen for inhibitors of Trypanosoma brucei methionyl tRNA synthetase (MetRS): Luminescence-based cell-based high throughput dose response assay to identify compounds that are cytotoxic to Jurkat human T lymphocyte cells. Format: functional.
Assay [9] has as its target T5, Methionyl-tRNA synthetase, putative. Type of assay: functional, Trypanosoma brucei brucei strain 927/4 GUTat10.1. This is another data set of the same source.
In assay [10] the target is FAD-linked sulfhydryl oxidase ALR (Homo sapiens, UniProt P55789). Description: ALR-catalysed DTT oxidation blockers – biochemical, H2O2 detection, luminescence, cherry-pick, dose response (AID 493248).
Assay [11] concerns the target T6, Rac GTPase-activating protein 1 (Homo sapiens, UniProt Q9H0H5).
T6 sequence (Q9H0H5 whole entry): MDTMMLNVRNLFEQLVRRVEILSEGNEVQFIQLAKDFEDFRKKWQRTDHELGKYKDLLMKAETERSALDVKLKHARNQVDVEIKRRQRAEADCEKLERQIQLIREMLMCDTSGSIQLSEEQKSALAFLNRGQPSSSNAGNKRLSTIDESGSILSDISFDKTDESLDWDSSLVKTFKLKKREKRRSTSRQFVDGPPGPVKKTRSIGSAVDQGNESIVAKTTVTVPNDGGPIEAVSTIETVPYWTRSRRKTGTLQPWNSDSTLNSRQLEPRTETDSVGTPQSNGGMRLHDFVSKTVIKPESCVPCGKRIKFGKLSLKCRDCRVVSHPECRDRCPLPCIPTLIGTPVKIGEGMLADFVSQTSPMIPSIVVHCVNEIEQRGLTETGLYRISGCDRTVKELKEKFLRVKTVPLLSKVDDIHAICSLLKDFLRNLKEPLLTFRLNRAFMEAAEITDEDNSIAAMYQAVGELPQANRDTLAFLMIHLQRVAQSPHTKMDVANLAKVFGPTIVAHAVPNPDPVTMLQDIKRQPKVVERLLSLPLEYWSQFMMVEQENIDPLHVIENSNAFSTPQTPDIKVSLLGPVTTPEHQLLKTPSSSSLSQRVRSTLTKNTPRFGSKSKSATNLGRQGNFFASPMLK
Description: blockers of MgcRacGAP-driven Rac1 GTP hydrolysis – biochemical, ADP Hunter fluorescence, primary and confirmatory, confirmation (AID 624330). Type of assay: functional.

The target of another assay is T7, Aminopeptidase N (Plasmodium falciparum FcB1/Columbia, UniProt O96935).
T7 sequence (O96935 whole entry): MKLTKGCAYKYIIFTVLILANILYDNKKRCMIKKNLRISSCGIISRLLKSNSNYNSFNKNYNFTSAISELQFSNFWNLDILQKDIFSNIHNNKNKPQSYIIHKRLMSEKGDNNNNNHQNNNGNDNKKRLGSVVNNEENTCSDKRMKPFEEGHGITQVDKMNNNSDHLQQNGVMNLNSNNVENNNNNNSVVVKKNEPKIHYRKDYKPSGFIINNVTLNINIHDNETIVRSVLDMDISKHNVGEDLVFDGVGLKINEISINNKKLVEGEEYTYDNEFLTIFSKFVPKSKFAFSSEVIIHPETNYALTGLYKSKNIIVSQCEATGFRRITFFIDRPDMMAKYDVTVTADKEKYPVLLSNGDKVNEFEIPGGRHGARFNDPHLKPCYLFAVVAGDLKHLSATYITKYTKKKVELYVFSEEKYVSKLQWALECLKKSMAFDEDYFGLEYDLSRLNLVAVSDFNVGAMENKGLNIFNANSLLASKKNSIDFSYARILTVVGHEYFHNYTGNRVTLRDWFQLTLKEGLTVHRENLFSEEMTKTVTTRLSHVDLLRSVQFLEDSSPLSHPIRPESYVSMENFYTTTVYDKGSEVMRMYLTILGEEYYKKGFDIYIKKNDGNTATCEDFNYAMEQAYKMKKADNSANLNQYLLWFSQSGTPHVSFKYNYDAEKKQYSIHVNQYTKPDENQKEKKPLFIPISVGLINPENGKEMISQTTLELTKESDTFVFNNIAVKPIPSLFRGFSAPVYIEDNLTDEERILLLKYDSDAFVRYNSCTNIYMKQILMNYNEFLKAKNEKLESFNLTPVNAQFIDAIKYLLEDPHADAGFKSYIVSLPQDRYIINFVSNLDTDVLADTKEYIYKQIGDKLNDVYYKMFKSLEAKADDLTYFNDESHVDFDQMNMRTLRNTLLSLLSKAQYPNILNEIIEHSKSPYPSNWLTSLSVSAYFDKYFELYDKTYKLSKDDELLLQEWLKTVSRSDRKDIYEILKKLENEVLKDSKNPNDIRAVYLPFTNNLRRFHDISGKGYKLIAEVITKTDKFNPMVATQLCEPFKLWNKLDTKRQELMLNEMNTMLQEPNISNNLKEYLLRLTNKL
Kind of assay: malaria alanyl aminopeptidase activity blockers – biochemical, fluorogenic H-Leu-NHMec substrate, 1536-well (AID 1445). Also noted: species or system Plasmodium falciparum 3D7, 3D7.

For assay [12], the target named is T8, Mitochondrial peptide methionine sulfoxide reductase (Bos taurus, UniProt P54149).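 Further: absorbance read-out, biochemical high-throughput dose-response screen for MsrA inhibitors, confirmatory; recombinant bovine MsrA coupled to E. coli TrxB with NADPH and selenocystamine; potency is for inhibitors of MsrA activity on DMSO substrate.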
T8 sequence (P54149 whole entry): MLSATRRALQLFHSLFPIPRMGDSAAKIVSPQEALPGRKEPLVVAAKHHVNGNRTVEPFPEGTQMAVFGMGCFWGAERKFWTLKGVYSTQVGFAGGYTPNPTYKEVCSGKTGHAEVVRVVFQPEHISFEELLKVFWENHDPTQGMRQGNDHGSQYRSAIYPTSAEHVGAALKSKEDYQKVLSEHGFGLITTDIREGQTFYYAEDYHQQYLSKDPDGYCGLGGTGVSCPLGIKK
Type of assay: functional.

Sequence of Beta-galactosidase (Q8VNN2 whole entry): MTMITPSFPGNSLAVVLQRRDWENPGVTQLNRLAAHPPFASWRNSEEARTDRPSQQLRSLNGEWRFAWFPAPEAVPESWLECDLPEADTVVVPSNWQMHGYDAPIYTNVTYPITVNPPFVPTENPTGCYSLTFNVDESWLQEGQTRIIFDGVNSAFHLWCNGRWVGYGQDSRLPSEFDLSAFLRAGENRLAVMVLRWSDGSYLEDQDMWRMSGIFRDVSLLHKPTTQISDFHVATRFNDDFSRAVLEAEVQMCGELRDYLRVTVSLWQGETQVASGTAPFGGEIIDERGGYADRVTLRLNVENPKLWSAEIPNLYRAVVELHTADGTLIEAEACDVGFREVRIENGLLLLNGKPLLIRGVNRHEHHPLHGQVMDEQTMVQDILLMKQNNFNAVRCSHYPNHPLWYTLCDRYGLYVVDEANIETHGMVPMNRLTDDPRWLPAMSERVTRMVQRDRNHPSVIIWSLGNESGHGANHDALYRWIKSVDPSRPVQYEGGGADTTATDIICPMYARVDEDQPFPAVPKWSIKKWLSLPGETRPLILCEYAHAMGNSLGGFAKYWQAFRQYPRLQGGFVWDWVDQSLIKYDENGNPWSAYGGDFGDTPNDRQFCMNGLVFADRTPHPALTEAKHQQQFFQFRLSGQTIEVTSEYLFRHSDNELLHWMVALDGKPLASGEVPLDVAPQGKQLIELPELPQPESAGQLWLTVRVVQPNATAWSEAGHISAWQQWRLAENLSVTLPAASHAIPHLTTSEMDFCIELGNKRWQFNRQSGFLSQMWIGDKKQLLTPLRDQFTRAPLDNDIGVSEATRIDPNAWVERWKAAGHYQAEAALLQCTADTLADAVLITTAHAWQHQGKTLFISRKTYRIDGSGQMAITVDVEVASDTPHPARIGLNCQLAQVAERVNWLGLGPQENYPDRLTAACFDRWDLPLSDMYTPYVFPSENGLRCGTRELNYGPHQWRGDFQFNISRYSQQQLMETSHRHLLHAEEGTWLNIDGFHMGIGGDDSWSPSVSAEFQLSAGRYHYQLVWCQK
T1 sequence (P65502 whole entry): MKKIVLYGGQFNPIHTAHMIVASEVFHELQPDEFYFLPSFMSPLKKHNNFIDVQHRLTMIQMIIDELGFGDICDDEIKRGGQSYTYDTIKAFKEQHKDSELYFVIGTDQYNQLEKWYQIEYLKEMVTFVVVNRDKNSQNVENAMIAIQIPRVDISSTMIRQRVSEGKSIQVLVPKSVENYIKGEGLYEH
Sequence of Cytochrome P450 2D6 (P10635 whole entry): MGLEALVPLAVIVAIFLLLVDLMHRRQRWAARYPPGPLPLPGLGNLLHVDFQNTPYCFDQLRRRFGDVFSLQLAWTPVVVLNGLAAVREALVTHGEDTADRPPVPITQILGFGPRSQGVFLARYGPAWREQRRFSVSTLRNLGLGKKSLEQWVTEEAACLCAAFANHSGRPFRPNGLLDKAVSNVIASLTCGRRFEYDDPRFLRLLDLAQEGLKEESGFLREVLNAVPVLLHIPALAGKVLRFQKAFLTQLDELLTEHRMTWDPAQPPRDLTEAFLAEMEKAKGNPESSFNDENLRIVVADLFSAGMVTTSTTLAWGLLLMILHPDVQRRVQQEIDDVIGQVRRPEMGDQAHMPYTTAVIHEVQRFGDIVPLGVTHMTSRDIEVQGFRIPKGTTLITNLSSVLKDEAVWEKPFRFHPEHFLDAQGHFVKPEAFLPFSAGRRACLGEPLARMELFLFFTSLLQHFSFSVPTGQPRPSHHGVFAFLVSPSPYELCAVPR
Sequence of FAD-linked sulfhydryl oxidase ALR (P55789 whole entry): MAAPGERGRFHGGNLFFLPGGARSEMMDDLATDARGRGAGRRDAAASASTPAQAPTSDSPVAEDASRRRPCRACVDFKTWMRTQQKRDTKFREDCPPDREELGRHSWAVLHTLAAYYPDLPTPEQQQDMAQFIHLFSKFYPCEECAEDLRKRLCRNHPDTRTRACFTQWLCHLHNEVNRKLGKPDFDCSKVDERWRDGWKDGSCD

In the case of `Cc1cccc(-n2nc3c(c2NC(=O)c2ccco2)CSC3)c1C`, the IC50 was 8.29 µM (active) in assay [1] and 17.8 µM (active) in assay [2]. On fMet-Leu-Phe receptor, the Ki – broadly, a measure of affinity in units of concentration, obtained from inhibition or displacement – is 22.9 µM (inactive).

Consider `CCCCN(c1ccccc1)c1ncnc(N)c1[N+](=O)[O-]`, for which, in assay [3], the concentration for a half-maximal effect (EC50) (in general, the midpoint of the concentration-response curve) is 8.33 µM (active). In addition, the AC50 (usually the midpoint of the concentration-response curve, whichever way the signal moves) in the assay on HEK293 was 14.3 µM (active). The IC50 on Interleukin-8 [4] is 39.7 µM (inactive); on Interleukin-8 [5], > 79 µM (inactive).

Consider `CN=C(S)N1N=C(c2ccc(C)cc2)CC1c1ccc(Cl)cc1` (stereo not drawn), for which, on Beta-galactosidase, the IC50 was > 80 µM (inactive).

`CC(C)N(c1ccccc1)c1ccc(NC(S)=NCCN(C)C)cc1`: the CC50 – broadly, the concentration at which the toxic effect on the cells reaches its halfway point – in assay [6] was 100 µM (active).

Regarding `CN=C(S)N1N=C(c2ccc(C)cc2)CC1c1ccc(Br)cc1` (stereo not drawn), the IC50 at Beta-galactosidase is > 80 µM (inactive).

Turning to `c1cncc(CNc2ncnc3ccc(-c4ccoc4)cc23)c1`, the half-maximal activity concentration (AC50) with HEK293 was 5.33 µM (active); at Cytochrome P450 2D6, 25.1 µM (inconclusive). Besides, the figures for the IC50 at Interleukin-8 [4] and at Interleukin-8 [5] were > 79 µM (inactive) and 6.44 µM (active), respectively.

For the compound `CC(=O)NS(=O)(=O)c1ccc(NC(=O)/C=C/c2cn(-c3ccccc3)nc2-c2ccccc2)cc1`, the IC50 was 49.8 µM (inactive) in [7], 83.3 µM (inactive) in assay [8] and 12 µM (inactive) in assay [9].

In the case of `O=C1C=C(NC2=CC3OC(c4ccccc4)OCC3OC2=O)CCC1` (stereo not drawn), the IC50 at Interleukin-8 [4] is 1.07 µM (active); at Interleukin-8 [5] it was 1.5 µM (active).

For the compound `O=C(/C=C/c1cccs1)N1CCC2(CC1)Oc1ccc(Cl)cc1C(=O)C21CC(c2ccccc2)=NO1` (stereo not drawn), the IC50 on Beta-galactosidase was > 80 µM (inactive).

For `COc1cc(/C=N/Nc2nc3ccccc3[nH]2)ccc1O`, in assay [10], the AC50 was 1.16 µM (active). The IC50 was 23.7 µM (inactive) in assay [7], 83.3 µM (inactive) in assay [8], 102 µM (inactive) in [9] and 14 µM (active) in assay [11]. The CC50 in assay [6] was 100 µM (active).

Take `COCc1cc(C)n(CC(=O)N/N=C/c2ccc(-c3ccc(Cl)c(C(=O)O)c3)o2)c(=O)c1C#N`: the IC50 at Aminopeptidase N is 24.7 µM (active); in assay [12], 99.4 µM (inactive).
